According to patent US9200047B2, “SSX-2 peptides presented by HLA class II molecules” (Ludwig Institute for Cancer Research, Ltd., priority 2003, dated 2015):

Tests used:
Type in all cases: cell-based, human
[1] = system: SSX-2 specific CD4^+ T cells; assay: Presentation of peptide SSX-2 13-34 by APC bearing different HLA-DP alleles (intracellular IFN-γ secretion); conditions: healthy donors (Caucasian); not shown
Description: FIG. 3A: Intracellular IFN-γ secretion by SSX-2 specific CD4+ T cells (clone 3C8) upon stimulation with peptide SSX-213-34 was assessed both in the absence and in the presence of anti HLA-DR, -DP or -DQ antibodies. FIG. 3B: The ability of APC bearing different HLA-DP alleles to present peptide SSX-2 13-34 to specific CD4^+ T cells was assessed by intracellular IFN-γ secretion.
Molecular typing of HLA-DP molecules, construction of plasmids and transient transfection. […]
(§1) For intracellular cytokine secretion detection T cells were incubated with APC at a 1:1 T cells:APC ratio during 4-6 h in the absence or in the presence of peptides at the indicated dose. […] Cells were then permeabilized using saponine (Sigma, 0.1% in PBS 10% FCS) stained by incubation with mAb against IFN-γ or IL-2 (BD, Pharmingen) and analyzed by flow cytometry. […] After 24 h incubation at 37° C., culture supernatants were collected and the content of IFN-γ determined by ELISA (BioSource Europe, Fleurus, Belgium). […] Spots were counted using a stereomicroscope with a magnification of ×15. […]

[2] = system: SSX-2 specific CD4^+ T cells; assay: Presentation of exogenously added peptide by melanoma cell lines to specific CD4+ T cell clones (ELISPOT); conditions: two lines, Me 260 and T465A
Description: FIGS. 4A and 4B show the lack of tumor recognition by SSX-2 13-34 specific CD4^+ T cells. FIG. 4A: Recognition of Me 260 cells by CD4+ T cells was tested by ELISPOT in the absence or in the presence of exogeneously added peptide SSX-213-34. Where indicated, cells were treated with IFN-γ during 48 hr. FIG. 4B: Recognition of T465A was assessed as in […] as well as upon transfection with an SSX-2 encoding plasmid. The CD8+ T cell clone B3.4 specific for peptide SSX-2 41-49 was used as an internal control.
For intracellular cytokine secretion detection T cells were incubated with APC at a 1:1 T cells:APC ratio during 4-6 h in the absence or in the presence of peptides at the indicated dose. One hour after the beginning of the incubation Brefeldin A (20 μg/ml, Sigma Chemical Co., Steinheim, Germany) was added to inhibit cytokine secretion. At the end of the incubation period cells were stained with anti-CD4 mAb for 20 min at 4° C. and fixed. Cells were then permeabilized using saponine (Sigma, 0.1% in PBS 10% FCS) stained by incubation with mAb against IFN-γ or IL-2 (BD, Pharmingen) and analyzed by flow cytometry. Data analysis was performed using Cell Quest software. […] After 24 h incubation at 37° C., culture supernatants were collected and the content of IFN-γ determined by ELISA (BioSource Europe, Fleurus, Belgium). […] Spots were counted using a stereomicroscope with a magnification of ×15. […]

[3] = system: CD4^+ T cells; assay: Intracellular IFN-γ / IL-2 staining of peptide-stimulated CD4+ T cell cultures from melanoma patients; conditions: culture from patient 672; not shown
Description: FIGS. 1A and 1B show detection of SSX-2 specific CD4^+ T cells in peptide stimulated cultures. The presence of specific CD4^+ T cells in the culture from patient 672 was assessed by intracellular staining with anti-IFN-γ (FIG. 1A, left panels) or anti-IL-2 antibodies (FIG. 1A, right panels) after stimulation with autologous PBMC alone (upper panels) or with the peptide submixture P1-3 (containing SSX-2 peptides 1-22, 13-34, 25-46). Numbers in upper right quadrants are percent of cytokine producing cells among CD4^+ T cells.
In vitro sensitization of CD4^+ T cells was carried out as described previously for CD8^+ T cells. […]
as §1

[4] = system: SSX-2 specific CD4^+ T cells (clone 2C3); assay: IFN-γ secretion (ELISA) by SSX-2 specific CD4+ T cell clone in response to extended or truncated peptides; conditions: for peptide recognition relative to SEQ ID NO:1 (IFN-γ secretion): clone 2C3, EBV LAU 149 as APC, serial peptide dilutions, ELISA after 24 hrs
Description: FIG. 2 depicts determination of the minimal sequence optimally recognized by SSX-2 specific CD4^+ T cells. Synthetic peptides extended or truncated at the SSX-213-34 N- or C-terminus were used to determine the minimal length of the epitope recognized by SSX-2 specific CD4^+ T cells. Serial dilutions of each peptide were incubated with EBV LAU 149 and SSX-2 specific CD4^+ T cells. IFN-γ secretion was determined by ELISA in the culture supernatant after 24 hrs of culture. The peptides tested were: […] (SSX-213-34; SEQ ID NO:1); […] (SSX-213-36; SEQ ID NO:2); […] (SSX-213-32; SEQ ID NO:3); VGAQIPEKIQKAFDDIAK (SSX-213-30; SEQ ID NO:4); IPEKIQKAFDDIAKYFSK (SSX-217-34; SEQ ID NO:5); EKIQKAFDDIAKYFSK (SSX-219-34; SEQ ID NO:6); IQKAFDDIAKYFSK (SSX-221-34; SEQ ID NO:7) and […] (SSX-261-82; SEQ ID NO:30).
(§2) For intracellular cytokine secretion detection T cells were incubated with APC at a 1:1 T cells:APC ratio during 4-6 h in the absence or in the presence of peptides at the indicated dose. One hour after the beginning of the incubation Brefeldin A (20 μg/ml, Sigma Chemical Co., Steinheim, Germany) was added to inhibit cytokine secretion. At the end of the incubation period cells were stained with anti-CD4 mAb for 20 min at 4° C. and fixed. Cells were then permeabilized using saponine (Sigma, 0.1% in PBS 10% FCS) stained by incubation with mAb against IFN-γ or IL-2 (BD, Pharmingen) and analyzed by flow cytometry. Data analysis was performed using Cell Quest software. For detection of cytokine secretion in the culture supernatant T cells (10,000) were incubated with stimulating cells (15,000/well) in 96-well round-bottom plates in 200 μl/well of IMDM containing 10% human serum and 20 U/ml hrIL2. After 24 h incubation at 37° C., culture supernatants were collected and the content of IFN-γ determined by ELISA (BioSource Europe, Fleurus, Belgium). IFN-γ ELISPOT assay was performed as described previously (Ayyoub M. et al, 2002, J Immunol 32:2292-2299) using nitrocellulose-lined 96-well microplates (MAHA S45: Millipore, Bedford, Mass.) and an IFN-γ ELISPOT kit (DIACLONE, Besancon, France). Stimulator cells (5×10^4/well) were added together with the indicated number of T cells and peptide (2 μM) where indicated. Spots were counted using a stereomicroscope with a magnification of ×15.
To more precisely define the SSX-2-derived peptide optimally recognized by specific CD4^+ T cells from patient 672, we analyzed the relative capacity of peptide SEQ ID to NO:1 extended or truncated variants to stimulate IFN-γ secretion by specific clonal T cells (clone 2C3). […] Similar results were obtained using another CD4^+ T cell clone (not shown).

[5] = system: SSX-2 13-34 specific CD4^+ T cell clone 3C8; assay: Processing of soluble recombinant protein by professional APC and presentation to specific CD4+ T cells (ELISPOT)
Description: FIG. 5A: The ability of EBV LAU 149 to process the SSX-2 protein and present the relevant epitope to specific CD4+ T cells was assessed by ELISPOT after 12 hrs incubation with soluble recombinant SSX-2 protein followed by washing. NY-ESO-1 protein was used as an internal control. FIGS. 5B and 5C: Processing and presentation of the SSX-2 CD4^+ T cell epitope by LAU 672 autologous monocyte-derived DC was assessed as in FIG. 5A.
as §2
We then assessed the ability of professional APC to process the SSX-2 antigen and present the SSX-2 13-34 epitope to specific CD4^+ T cells.

[6] = system: clonal CD8^+ T cells (clone B3.4); assay: Processing of exogenous SSX-2 protein by professional APC and recognition by SSX-2 41-49 specific CD8+ T cells; conditions: EBV and DC as APC

VGAQIPEKIQKAFDDIAKYFSK (listed as Homo sapiens) [SEQ ID NO:1]
PBMC from healthy donors able to present the epitope to CD4^+ T cells [1]: 3 out of 14
presentation of peptide by melanoma cell lines to specific T cell clones [2]: efficiently presented
reactivity of the culture to single peptides in the submixture P1-3 [3]: active peptide

IPEKIQKAFDDIAKYFSK (listed as Homo sapiens) [SEQ ID NO:5]
peptide recognition relative to SEQ ID NO:1 (IFN-γ secretion) [4]: did not significantly affect recognition

IQKAFDDIAKYFSK (listed as Homo sapiens) [SEQ ID NO:7]
reduction of peptide activity ([4]; relative to SEQ ID NO:1, clone 2C3, IFN-γ ELISA): 10 fold

EKIQKAFDDIAKYFSK (listed as Homo sapiens) [SEQ ID NO:6]
peptide recognition relative to SEQ ID NO:1 (IFN-γ secretion) [4]: did not significantly affect recognition
epitope mapping: minimal peptide among analyzed peptides ([4]; clone 2C3, similar results with another CD4+ T cell clone): minimal peptide optimally recognized

B1: SSX-2 protein: soluble recombinant SSX-2 protein given to APC (protein, UniProt Q16385 1-188, looked up)
Protein SSX2: MNGDDAFARRPTVGAQIPEKIQKAFDDIAKYFSKEEWEKMKASEKIFYVYMKRKYEAMTKLGFKATLPPFMCNKRAEDFQGNDLDNDPNRGNQVERPQMTFGRLQGISPKIMPKKPAEEGNDSEEVPEASGPQNDGKELCPPGKPTTSEKIHERSGPKRGEHAWTHRLRERKQLVIYEEISDPEEDDE
processing of protein and presentation of the epitope / stimulation of clone 3C8 ([5]; EBV LAU 149 as APC, 12 hrs incubation with soluble recombinant protein): efficiently process
stimulation of clone 3C8 ([5]; EBV cells unable to present the peptide as APC): not significantly stimulated
presentation of the epitope to specific CD4+ T cells ([5]; LAU 672 autologous dendritic cells (DC) as APC): Efficient presentation
recognition of the CD8^+ T cell epitope SSX-2 41-49 after processing of exogenous protein [6]: did not result in recognition
